Laboratory results reported in patent publication US20210163453A1, “DERIVATIVES OF PAPAVERINE THAT ARE EFFECTIVE HYPOXIC TUMOR RADIOSENSITIZERS” (Ohio State Innovation Foundation, priority 2018, published 2021).
“Also recorded” adds a separate entry of the source.

System: A549 cells
Test: In vitro radiation survival (colony formation) of A549 cells
Assay type: cell-based, Human
Description: FIGS. 4A-4G show tumor growth before and after radiosensitization with PPV. FIG. 4A-4B show in vitro radiation survival assessment of A549 cell line treated with […] PPV in normoxia (FIG. 4A) and anoxia (FIG. 4B). Normoxic cells were irradiated in triplicates on a cell culture dish, anoxic cells were irradiated in high density suspension after sealing with mineral oil 45 minutes before radiation. Values represent averaged colony counts+−standard deviation. FIG. 4C show quantification of tumor growth delay in orthotopic EO771 tumors gown in C57B16 mice receiving either 5 Gy XRT (magenta) or 2 mg/kg PPV 35 minutes prior to 5 Gy XRT (blue) (n=3-4). Values are mean tumor volumes+−SEM. […] Values are mean tumor volumes+−SEM. FIG. 4E-4F show tumor growth delay. When tumors reached 4-fold volume increase, groups receiving no treatment or PPV only (FIG. 4E); and XRT only or PPV followed by XRT (FIG. 4F), tumor weights were compared. Values are mean tumor weights+−SEM (n=8). P values were calculated with two-tailed two-sample t test. FIG. 4G are related to FIG. 4E-4F tumor growth delay.
A549 cells in suspension were treated with 5 μM PPV for one hour prior to radiation and plating in fresh media for colony formation post radiation. (N=2 experiments performed in triplicate). […]

COc1ccc(Cc2nccc3cc(OC)c(OC)cc23)cc1OC [PPV, papaverine]
colony survival after radiation (5 μM papaverine for one hour prior to radiation): did not have any effect on colony survival; also recorded: not an inherent radiosensitizer | surviving fraction of irradiated cells (10 μM PPV, normoxia and anoxia): did not change the surviving fraction
